“And” between values parts separate entries of the source, which are not always exact repeats. Identical values can stand only once.
Key:
[1] = Pharmacokinetics of BC-2 and BC-3 in mouse plasma and brain; format: in vivo, mice; settings: mouse, in vivo, po, 5 mg/kg
Method: Pharmacokinetics were assessed in mice administered a single oral dose of 5 mg/kg of the indicated compound (Tables 9 and 10).

[2] = system: wild-type C. elegans; assay: C. elegans lifespan; format: in vivo
Method: Synchronized populations of wild-type L1 C. elegans hatched overnight were transferred to agar plates followed by VMY-BC-1 was added freshly from a 5 mM stock to the NGM media. Water was used as control. The L4 population of worms was randomly split to control or treatment groups in a density of about 20-30 worms per 6 cm plate dish.
The first day of adulthood was considered day one. In all the experiments with late-onset administration of VMY-BC-1, synchronized L4 animals were moved to the media supplemented with 5′-fluorodeoxyuridine (FUDR, Cayman chemicals) at a final concentration of 1 μM for 2 days to prevent reproduction, then were moved to FUDR-free NGM plates until the final treatments at day 10. The animals that crawled off the plate, ruptured, or died from internal hatching were censored. Worms were transferred to fresh plates every day after reaching adulthood, and every 2 days after reaching 10 days of age. Prodding test was used to count the number of dead worms. Survival curve was plotted using Prism 7 and the significance of the curves calculated by Log-rank (Mantel-Cox) test.
Synchronized populations of polyQ-expressing C. elegans were grown for 72 hours on media containing 1 μM VMY-BC-1. PolyQ aggegrative vacuoles were detected using confocal microscopy. PolyQ aggregations were decreased compared to vehicle (DMSO) (FIG. 21A). […]

[3] = Plasma vs tumor PK in MDA-MB-231 xenograft mice; format: in vivo, athymic nude mice
Method: FIGS. 10A and 10B are graphs showing plasma (FIG. 10A) and tumor (FIG. 10B) concentrations of VMY-BC-1 in MDA-MB-231 xenograft mice administered 75 mg/kg VMY-BC-1.
(§1) At the end of the study, brain and plasma samples were collected for drug concentration. Tumor tissues were collected for immunohistochemistry, Western blot, and bioanalysis. Statistical analysis of tumor growth in the control and treated groups was performed by Student's T test using GraphPad Prism (Ver. 5.03).
The impact of VMY-BC-1 on autophagy proteins in tumor tissue was also investigated. […] Finally, as shown in Table 4 and FIGS. 10A and 10B, VMY-BC-1 had 3-fold higher drug concentration (Cmax) in tumors than in plasma.

[4] = system: U87 MG tumor xenografts; assay: U87 GBM tumor xenograft efficacy; format: in vivo, SCID mice
Method: (§2) To evaluate the anti-tumor efficacy of VMY-BC-1 in vivo, GBM tumor xenografts were established in the flanks of SCID mice. 5×10^6 U87 MG (ATCC HTB-14™) cells in 1×HBSS with 1:1 Matrigel® were implanted subcutaneously in the flank of 5-6 week old female SCID mice (C.B-lgh-1b/GbmsTac-Prkdc^scid-Lyst^bg N7; Taconic Biosciences, India). Mice (n=8) were treated with vehicle (2% (v/v) Tween® 80+98% (v/v) of 0.5% (w/v) hydroxypropyl methylcellulose (HPMC) in water) or VMY-BC-1 75 mg/kg PO daily for 14 days. The dose volume was 10 mL/kg. Tumor volume, tumor growth inhibition (TGI), body weight, and clinical signs were monitored as described in Example 5.

[5] = system: MDA-MB-231 tumor xenografts; assay: MDA-MB-231 tumor xenograft efficacy; format: in vivo, athymic nude mice
Method: as §2, with “MDA-MB-231” for “GBM”, “athymic nude” for “SCID”, “MDA-MB-231 TNBC” for “U87 MG (ATCC HTB-14™)”, “(CrTac:Ncr-Foxn1^nu;” for “(C.B-lgh-1b/GbmsTac-Prkdc^scid-Lyst^bg N7;”, “monitored. Tumor growth was measured twice weekly using a digital Vernier caliper. Tumor volume was calculated” for “monitored”, “[length×width^2]/2. TGI was calculated as:” for “described in Example 5.”
% TGI={(TV ControlFinal−TV ControlInitial)−(TV TreatedFinal−TV TreatedInitial)}×100
as §1

[6] = Stability in simulated intestinal fluid; format: physicochemical
[7] = athymic nude, mouse, Plasma, oral 75 mg/kg
[8] = athymic nude, mouse, Tumor, oral 75 mg/kg

**Q.** With `COc1ccc(/C=C/c2cc(OC)cc(B(O)O)c2)cc1` [VMY-BC-1] as the compound, how does the AUC(0-inf) [1] read?
**A.** 865 ng·h/mL

**Q.** What about the “AUC(inf)” value [1] of the same compound?
**A.** 149000 ng·min/mL

**Q.** What about the Cmax [1] of the same compound?
**A.** 578 ng/mL and 1560 ng/g

**Q.** And the “Concentration in brain vs plasma” value [1]?
**A.** higher concentration in brain than in plasma

**Q.** What about the Tmax [1] of the same compound?
**A.** 0.5 h

**Q.** And the concentration at 30 min [1]?
**A.** 578 ng/mL and 1560 ng/g

**Q.** And the concentration at 60 min [1]?
**A.** 470 ng/mL and 1400 ng/g

**Q.** And the concentration at 180 min [1]?
**A.** 60 ng/mL and 169 ng/g

**Q.** And the Tmax ([1]; Tmax)?
**A.** 0.5 h

**Q.** And the half-life ([1]; T½)?
**A.** 0.733 h

**Q.** And the “Maximal median lifespan extension” value ([2]; 1 μM)?
**A.** ~25%

**Q.** What about the Lifespan ([2]; 0.1 to 10 μM) of the same compound?
**A.** dose-dependent lifespan extension

**Q.** And the “Drug levels in tumor vs plasma” value ([3]; 75 mg/kg oral)?
**A.** higher VMY-BC-1 drug levels in tumor than in plasma

**Q.** And the AUCextrap ([3]; Plasma, oral 75 mg/kg)?
**A.** 0.34%

**Q.** And the AUCextrap ([3]; Tumor, oral 75 mg/kg)?
**A.** 7.48%

**Q.** And the AUCinf ([3]; Tumor, oral 75 mg/kg)?
**A.** 41005.56 ng·h/g

**Q.** And the AUClast ([3]; Tumor, oral 75 mg/kg)?
**A.** 37936.36 ng·h/g

**Q.** What about the Kp ([3]; athymic nude, mouse, tumor and plasma, 75 mg/kg oral, read-out: Cmax in tumors relative to plasma) of the same compound?
**A.** 3

**Q.** What about the AUC(0-inf) [3, 7] of the same compound?
**A.** 32300 ng·h/mL

**Q.** And the AUC(0-t) [3, 7]?
**A.** 32200 ng·h/mL

**Q.** What about the Cmax [3, 7] of the same compound?
**A.** 4530 ng/mL

**Q.** What about the MRT last [3, 7] of the same compound?
**A.** 5.76 h

**Q.** What about the Tmax [3, 7] of the same compound?
**A.** 0.5 h

**Q.** And the half-life [3, 7]?
**A.** 3.15 h

**Q.** What about the Cmax [3, 8] of the same compound?
**A.** 13600 ng/g

**Q.** And the MRT last [3, 8]?
**A.** 1.94 h

**Q.** And the Tmax [3, 8]?
**A.** 1 h

**Q.** What about the half-life [3, 8] of the same compound?
**A.** 1.52 h

**Q.** What about the “Treatment-related adverse effects (body weight and clinical signs)” value ([4]; 75 mg/kg once daily oral, 14 days) of the same compound?
**A.** No treatment-related adverse effects were observed

**Q.** What about the Tumor growth inhibition ([4]; 75 mg/kg once daily oral, end of 2 weeks) of the same compound?
**A.** 32%

**Q.** What about the “Drug levels in tumor vs plasma” value ([4]; U87 xenograft mice, 75 mg/kg) of the same compound?
**A.** higher VMY-BC-1 drug levels in tumor than in plasma

**Q.** What about the “Apoptosis by TUNEL staining” value ([4]; tumor tissue, 75 mg/kg) of the same compound?
**A.** significant increase in apoptosis

**Q.** What about the “Reduction in Ki67 proliferation marker vs control” value ([4]; tumor tissue, 75 mg/kg) of the same compound?
**A.** 51%

**Q.** What about the Body weight ([5]; 75 mg/kg PO daily for 14 days) of the same compound?
**A.** without any apparent change in body weight

**Q.** And the Tumor growth inhibition ([5]; 75 mg/kg PO daily for 14 days)?
**A.** approximately 30%

**Q.** What about the “Apoptosis by TUNEL staining” value ([5]; tumor tissue, 75 mg/kg PO) of the same compound?
**A.** significant increase in apoptosis

**Q.** What about the “Reduction in Ki67 proliferation marker vs control” value ([5]; tumor tissue, 75 mg/kg PO) of the same compound?
**A.** 50%

**Q.** What about the “Phospho-ULK1 and LC3 protein expression in tumors” value ([5]; tumor tissue, 24 hours after treatment) of the same compound?
**A.** upregulated

**Q.** And the “Stability in simulated intestinal fluid” value [6]?
**A.** 97.24% remaining

**Q.** What about the “Stability in simulated intestinal fluid (words)” value [6] of the same compound?
**A.** stable

From patent US20220213126A1, “SMALL MOLECULE AUTOPHAGY INDUCERS FOR THE TREATMENT OF CANCER AND NEURODEGENERATIVE DISEASES” (John Wayne Cancer Institute, priority 2019, published 2022)
